As a reminder, the IC50 is the point on the concentration scale where inhibition reaches its midpoint.

Molecules are shown by their SMILES.

In patent publication US10954216B2, “BMP-signal-inhibiting compound” (RIKEN, priority 2016, dated 2021) one finds IC50 data, which are given here for 13 compounds.

One assay concerns BMP signal in MDA-231-D-BREFluc/Rluc cells. In words: BMP signal inhibitory effect (AlphaScreen SureFire SMAD1 p-Ser463/465, BMP-6 stimulation). The assay is classed as cell-based.
Conditions: not given
The protocol:
BMP Signal Inhibitory Effect
A BMP signal inhibitory activity of a compound of the present invention was evaluated according to the following method.
MDA-231-D-BREFluc/Rluc cells prepared according to the method described in Y. Katsuno et al., Oncogene, 27, 6322 (2008) were incubated at 37° C. for 2 hours together with test compounds, and BMP-6 (commercially available from R&D System, 507-BM-020) was then added thereto, and the mixture was additionally incubated at 37° C. for 30 minutes. A Lysis Buffer and Acceptor mix of AlphaScreen SureFire SMAD1 (p-Ser463/465) assay kit (commercially available from Perkin Elmer, TGRSM1S10K) were sequentially added thereto, the mixture was incubated at room temperature for 2 hours, and AlphaScreen Protein A kit (commercially available from Perkin Elmer, 6760617) was then added thereto, and standard AlphaScreen settings of Alpha Technology—compatible plate reader (commercially available from Perkin Elmer, EnSpire) was used for measurement.
(In Alpha technology, singlet oxygen from a donor bead excites a nearby acceptor bead.)
Compound `CCn1cc(-c2ccnc(Nc3ccc(C(=O)N(C)C4CC5CCC(C4)N5C(C)C)cc3)n2)c(-c2cccnc2)n1` (stereo not shown) [Example 5, 4-((4-(1-Ethyl-3-(pyridin-3-yl)-1H-pyrazol-4-yl)pyrimidin-2-yl)amino)-N-(8-isopropyl-8-azabicyclo[3.2.1]octan-3-yl)-N-methylbenzamide] displayed an IC50 of 0.0169 µM.

Still in this assay, the particulars now being: BMP-6 stimulated MDA-231-D-BREFluc/Rluc cells, phospho-SMAD1 AlphaScreen; read-out: IC50.
Turning to `CCn1cc(-c2ccnc(Nc3ccc(C(=O)N4CCN(C(C)(C)C)CC4)cc3)n2)c(-c2cccnc2)n1` [Example 1, (4-(tert-butyl)piperazin-1-yl)(4-((4-(1-ethyl-3-(pyridin-3-yl)-1H-pyrazol-4-yl)pyrimidin-2-yl)amino)phenyl)methanone], the IC50 came to 0.0069 µM.

On to `CCn1cc(-c2ccnc(Nc3ccc(C(=O)N4CCCCC4)cc3)n2)c(-c2cccnc2)n1` [Example 2, (4-((4-(1-ethyl-3-(pyridin-3-yl)-1H-pyrazol-4-yl)pyrimidin-2-yl)amino)phenyl)(piperidin-1-yl)methanone], for which the 50% inhibitory concentration (IC50) came out at 0.0407 µM.

Turning to `CCn1cc(-c2ccnc(Nc3ccc(C(=O)N(C)C4CCN(C)CC4)cc3)n2)c(-c2cccnc2)n1` [Example 4, 4-((4-(1-ethyl-3-(pyridin-3-yl)-1H-pyrazol-4-yl)pyrimidin-2-yl)amino)-N-methyl-N-(1-methylpiperidin-4-yl)benzamide], the half-maximal inhibitory concentration (IC50) stood at 0.0163 µM. For the compound `CCn1cc(-c2ccnc(Nc3ccc(C(C)=O)cc3)n2)c(-c2cccnc2)n1` [Example 6, 1-(4-((4-(1-Ethyl-3-(pyridin-3-yl)-1H-pyrazol-4-yl)pyrimidin-2-yl)amino)phenyl) ethan-1-one], the IC50 stood at 0.0292 µM. As for `CCn1cc(-c2ccnc(Nc3ccc4c(n3)CCN(C)C4)n2)c(-c2cccnc2)n1` [Example 7, N-(4-(1-ethyl-3-(pyridin-3-yl)-1H-pyrazol-4-yl)pyrimidin-2-yl)-6-methyl-5,6,7,8-tetrahydro-1,6-naphthyridin-2-amine], the IC50 is 0.144 µM. With `CN1CCc2cc(Nc3nccc(-c4cn(C5COC5)nc4-c4cccnc4)n3)ccc2C1` [Example 8, 2-methyl-N-(4-(1-(oxetan-3-yl)-3-(pyridin-3-yl)-1H-pyrazol-4-yl)pyrimidin-2-yl)-1,2,3,4-tetrahydroisoquinolin-6-amine], the concentration for half-maximal inhibition (IC50) stood at 0.0068 µM. For the compound `CCn1cc(-c2ccnc(Nc3ccc4c(c3)CN(C3COC3)C4)n2)c(-c2cccnc2)n1` [Example 9, N-(4-(1-Ethyl-3-(pyridin-3-yl)-1H-pyrazol-4-yl)pyrimidin-2-yl)-2-(oxetan-3-yl)isoindolin-5-amine], the IC50 stood at 0.0235 µM. `CN1CCc2cc(Nc3nccc(-c4cn(CC5CCOC5)nc4-c4cccnc4)n3)ccc2C1` (stereo not shown) [Example 10, 2-Methyl-N-(4-(3-(pyridin-3-yl)-1-((tetrahydrofuran-3-yl)methyl)-1H-pyrazol-4-yl)pyrimidin-2-yl)-1,2,3,4-tetrahydroisoquinolin-6-amine]: the half-maximal inhibitory concentration (IC50) stood at 0.0058 µM.

Regarding `CCn1cc(-c2ccnc(Nc3ccc(C4CCN(C5COC5)CC4)cc3)n2)c(-c2cccnc2)n1` [Example 11, 4-(1-Ethyl-3-(pyridin-3-yl)-1H-pyrazol-4-yl)-N-(4-(1-(oxetan-3-yl)piperidin-4-yl)phenyl)pyrimidin-2-amine], the IC50 worked out at 0.0294 µM. The same measure, in the same setting: to `COCCN1CCC(c2ccc(Nc3nccc(-c4cn(C5COC5)nc4-c4cccnc4)n3)cc2)CC1` [Example 12, N-(4-(1-(2-methoxyethyl)piperidin-4-yl)phenyl)-4-(1-(oxetan-3-yl)-3-(pyridin-3-yl)-1H-pyrazol-4-yl)pyrimidin-2-amine] belongs 0.0066 µM; to `COCCn1cc(-c2ccnc(Nc3ccc(C4CCN(C5COC5)CC4)cc3)n2)c(-c2cccnc2)n1` [Example 13], 0.0268 µM. As to `CCn1cc(-c2ccnc(Nc3ccc(-c4cn5ccccc5n4)cc3)n2)c(-c2cccnc2)n1` [Example 14, 4-(1-ethyl-3-(pyridin-3-yl)-1H-pyrazol-4-yl)-N-(4-(imidazo[1,2-a]pyridin-2-yl)phenyl)pyrimidin-2-amine], the IC50 was 0.0364 µM.
